Test results published in US20240360148A1 (SUVALENT THERAPEUTICS, INC., priority 2021, published 2024).

How the values were obtained:
[1] = Plasma protein binding, equilibrium dialysis, human plasma; assay type: in vitro ADME; conditions: 5 hours at 37° C., read-out: PPB % bound Human (converted)
Description: (§1) The compounds of interest were evaluated for various PK parameters. Specifically CACO permeability/efflux and plasma protein binding (PPP) were determined. Stock solutions were prepared at 10 mM in DMSO for test and reference compounds. Aliquots of the stock solution were diluted to 500× of final concentration (0.5 mM) with DMSO, then further diluted upon the addition of bank PE3-buffer to 20× of final concentration (20 μM). Then test and reference compounds were prepared in plasma at 1 μM. For 0 hour incubation: 25 μL of the plasma spiked with test and reference compounds was transferred into a 96-well sample preparation plate, and then 25 μL blank PB-buffer was added. The samples were quenched by 200 μL of IS solution to prepare [Initial]0h samples. For 5 hours incubation: 100 μL of the plasma spiking with test and reference compounds was loaded on donor side, and 100 μL of blank PB-buffer were loaded on receiver side of the equilibrium dialysis device. Samples were incubated in an air-bath shaker (60 rpm) for 5 hours at 37° C. After 5 hours incubation, 25 μL of samples (from both the donor sides and receiver sides of the dialysis apparatus) was aspirated and added into new sample preparation plates, separately. 25 μL of blank PB-buffer was added to donor side samples and 25 μL of blank plasma was added to receiver side samples to balance the matrix. The samples were quenched with 200 μL of IS solution. The assay plate was shaken at the vibrator (Hangzhou Allsheng, MX100-4A) for 10 min (600 rpm) and then centrifuged at 5,594×g for 15 min (Thermo Multifuge×3R). An aliquot of the 50 μL supernatant was taken from each well and diluted by 50 μL distilled water, then analyzed by UPLC-MS/MS.

[2] = Plasma protein binding, equilibrium dialysis, mouse plasma; assay type: in vitro ADME; conditions: 5 hours at 37° C., read-out: PPB % bound Mouse (converted)
Description: as §1

[3] = Plasma protein binding, equilibrium dialysis, monkey plasma; assay type: in vitro ADME; conditions: 5 hours at 37° C., read-out: PPB % bound Monkey (converted)
Description: as §1

[4] = Plasma protein binding, equilibrium dialysis, dog plasma; assay type: in vitro ADME; conditions: 5 hours at 37° C., read-out: PPB % bound Dog (converted)
Description: as §1

[5] = test system: sumoylation levels (SUMO 2/3 conjugates) in HCT-116 cells; test: HCT-116 4 Hour Cell Assay (Western, SUMO 2/3 conjugates); assay type: cell-based; conditions: Homo sapiens, HCT-116, 4 h, 4 h treatment, Anti-Sumo 2-3 immunoblot, read-out: HCT-116 Western 4 h IC50 (μM) Ave
Procedure, shortened: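 Cells treated 4 h with 11 three-fold dilutions from 25 μM; lysed in RIPA with NEM and Benzonase. Non-reducing SDS-PAGE immunoblot with anti-SUMO 2/3 mAb, IRDye fluorescent detection; conjugate signal normalized to total protein stain, IC50 from quantified bands.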

[6] = Caco-2 permeability/efflux; assay type: in vitro ADME; conditions: human, Caco-2, pH 7.4; B-A / A-B
Description: (§2) Caco-2 cells were obtained from American Tissue Culture Collection (Rockville, MD). The cells were maintained in Modified Eagle's medium (MEM), containing 10% heat-inactivated fetal bovine serum (FBS), and 1% non-essential amino acids, in CO2 at 37° C. Cells were seeded on polycarbonate filter inserts (Millipore, CAT #PSHT 010 R5). The cells were cultured for 21-28 days prior to the permeability experiments. The Lucifer Yellow permeability was checked before and after the assay. Compounds were dissolved at 10 mM in 100% dimethyl sulfoxide (DMSO) and diluted for studies in Hanks Balanced Salt Solution (HBSS, Invitrogen, Cat #14025-092) with 25 mM HEPES, pH 7.4. Compounds were tested at 10 µM in both the apical-to-basolateral (A-B) and basolateral-to-apical (B-A) directions, incubations were conducted at 37° C. for 90 min. At the end of incubation, samples were diluted by assay buffer, and analyzed by LC-MS/MS. The concentrations of the compounds were quantified by standard curve. The first comparator example (Comp. Ex. 1) is the chloro substituted thienodihydropyridine

Caco-2 cells = test: Caco-2 permeability/efflux; assay type: in vitro ADME; conditions: 10 uM, 37° C., 90 min, pH 7.4
Description: as §2

Row | fraction unbound at 5 h, 1 μM [1] | fraction unbound at 5 h, 1 μM [2] | fraction unbound at 5 h, 1 μM [3] | fraction unbound at 5 h, 1 μM [4] | IC50 [5] [µM] | efflux ratio at 90 min, 10 μM [6] | Caco-2 apparent permeability (Papp) (Caco-2 cells; apical-to-basolateral) | Caco-2 apparent permeability (Papp) (Caco-2 cells; basolateral-to-apical) | SMILES
1 | 0.008 | 0.005 | 0.009 | 0.001 | 0.0974 | 1 | 3.4 10^-6 cm/s | 4.1 10^-6 cm/s | C=CC(=O)N1Cc2sc(C#N)c(C)c2[C@H](c2cccc(F)c2-c2cn(CC)nc2C(F)(F)F)C1 [Compound 222]
2 | 0.033 | 0.039 | 0.064 | 0.02 | 0.157 | 6 | 4 10^-6 cm/s | 21 10^-6 cm/s | CCn1cc(-c2c(F)cccc2[C@@H]2CN(C(=O)/C=C/CNC)Cc3sc(C#N)cc32)c(C(F)(F)F)n1 [Example 50]
3 | 0.028 | 0.013 | 0.047 | 0.008 | 0.0953 | 1 | 12.7 10^-6 cm/s | 11.6 10^-6 cm/s | CCn1cc(-c2c(F)cccc2[C@@H]2CN(C(=O)/C=C/CN(C)C)Cc3sc(C#N)c(C)c32)c(C(F)(F)F)n1 [Example 46, (S, E)-6-(4-(dimethylamino)but-2-enoyl)-4-(2-(1-ethyl-3-(trifluoromethyl)-1 H-pyrazol-4-yl)-3-fluorophenyl)-3-methyl-4,5,6,7-tetrahydrothieno[2,3-c]pyridine-2-carbonitrile]
